The record followed here is patent US8822690B2, “High transmissional yellow dye for LCD and synthetic method thereof” (LG Display Co., Ltd., priority 2012, dated 2014).

Format in all cases: physicochemical
A short description of data set [1]: qualitative solubility assessment of the synthesized quinophthalone series dye. As to conditions: organic solvent or mixture. From the text:
In below Table 1, there were qualitative solubility assessment results of the synthesized quinophthalone series dye. […] This means that new design to improve solubility is successful. It was shown that QP3 improving intermolecular steric hindrance by bulk-sized alkyl residue and QP4 increasing affinity to the process solvent, PGMEA, by introducing carboxylate functional group increased its solubility successfully than QP1.

A short description of data set [2]: UV-vis absorption spectroscopic analysis of dye. Conditions: slope of absorption reduction just prior to 500 nm, absorption after 500 nm. From the text: As QP3 and QP4 increased the molar extinction coefficient further in addition to somewhat bathochromic-shift of λmax, they show very strong and sharp absorption peaks prior to 500 nm. This is very ideal absorption peak for being used as a yellow compensation dye to correct the major green dye.

The nature of data set [3]: solubility to PGMEA in primary color filter application property assessment. Conditions: for 1% solubility of dye to PGMEA: 1% in PGMEA.
Data set [4] is described as follows: thermal resistance by Thermo Gravimetric Analyzer (TGA). Conditions: high temperature zone over 300° C. As for the experimental part:
Through Thermo Gravimetric Analyzer (TGA), Thermogravimetric Analyzer 2050 (TA instruments), thermal resistance of the synthesized dye was measured (FIG. 3). For the thermal resistance test, change of mass reduction rate (w %) was measured by passing through isothermal section at 220° C. for 30 min, raising the temperature to 30° C.˜400° C. in 10° C./min. In order to apply it as a dye material for LCD color filter, the mass reduction in isothermal zone must be less than 5%. […] In case of QP3 and QP4, it was analyzed that functional groups introduced to improve the solubility gave somewhat reciprocal effects to the thermal resistance of dye. […] It seems that the weight loss is caused by effects of solvents or impurities rather than thermal resistance of dye itself.

The nature of data set [5]: spectroscopic change by temperature and number of PB (Δ Eab). As for the experimental part:
Color simulation was performed according to the condition described in FIG. 15.

The mark [6] stands for this setting: process solvent PGMEA, read-out: solubility in PGMEA.
[7] abbreviates: solvent CH2Cl2, read-out: solubility in CH2Cl2.
Where [8] appears, read: 180° C., first value of PB sequence.
The mark [9] stands for this setting: 180° C., second value of PB sequence.
Where [10] appears, read: 180° C., third value of PB sequence.
Where [11] appears, read: 200° C., first value of PB sequence.
Where [12] appears, read: 200° C., second value of PB sequence.
Where [13] appears, read: 200° C., third value of PB sequence.
[14] abbreviates: 230° C., first value of PB sequence.
Where [15] appears, read: 230° C., second value of PB sequence.
Where [16] appears, read: 230° C., third value of PB sequence.

Like-named read-outs stand apart in the source and are kept apart here. Some results are limits rather than exact numbers.

For the compound `O=C1c2ccccc2C(=O)C1c1ccc2cccc(N3C(=O)c4ccccc4C3=O)c2n1` [QP1], the solubility in data set [1] (setting [6]) and in data set [1] (setting [7]) was more than 5 mg/mL in each case.

For the compound `CC(C)(C)c1ccc2c(c1)C(=O)/C(=C1\C=Cc3cccc(N4C(=O)c5ccc(C(C)(C)C)cc5C4=O)c3N1)C2=O` [QP3], the “color property (UV-vis absorption peak)” value in data set [2] is given as “the most excellent color property”. Also, the “1% solubility of dye to PGMEA” value in data set [3] is given as “satisfactory level”. For the same compound, the “solubility to PGMEA” value in data set [3] is on record as 5-10%. In addition, the solubility in data set [1] (setting [6]) and in data set [1] (setting [7]) was more than 50 mg/mL throughout. Besides, in data set [4], the “thermal resistance in high temperature zone” value was “the best thermal resistance property”. In addition, the “spectroscopic change by # of PB (Δ Eab)” value was found to be 0.36 in data set [5] (setting [8]); 1.84 in data set [5] (setting [9]); 1.98 in data set [5] (setting [10]); 0.56 in data set [5] (setting [11]); 2.74 in data set [5] (setting [12]); 2.77 in data set [5] (setting [13]). Besides, the “spectroscopic change by # of PB (Δ Eab)” value is 2.94 in data set [5] (setting [14]), 9.3 in data set [5] (setting [15]) and 13.4 in data set [5] (setting [16]).

Turning to `O=C1c2cccc3cccc(c23)C(=O)N1c1cccc2c1NC(=c1c(=O)c3cccc4cccc(c1=O)c43)C=C2` [QP2], the solubility in data set [1] (setting [6]) and in data set [1] (setting [7]) was more than 0.5 mg/mL in each case.

`CCOC(=O)c1ccc2c(c1)C(=O)/C(=C1\C=Cc3cccc(N4C(=O)c5ccc(C(=O)OCC)cc5C4=O)c3N1)C2=O` [QP4]: in data set [3], the “1% solubility of dye to PGMEA” value is on record as “satisfactory level”. Further, the “solubility to PGMEA” value in data set [3] was 5-7%. The solubility in data set [1] (setting [6]) and in data set [1] (setting [7]) was more than 50 mg/mL in each case. Also, the “spectroscopic change by # of PB (Δ Eab)” value in data set [5] (setting [8]) is 1.11; in data set [5] (setting [9]), 1.42; in data set [5] (setting [10]), 1.59; in data set [5] (setting [11]), 1.62; in data set [5] (setting [12]), 2.04; in data set [5] (setting [13]), 2.37. For the same compound, the “spectroscopic change by # of PB (Δ Eab)” value in data set [5] (setting [14]) is listed as 3.51; in data set [5] (setting [15]) it was 6.3; in data set [5] (setting [16]) it was 9.36.
